Source: patent publication US8969565B2, “Imidazo[1,2-b]pyridazine-based compounds, compositions comprising them, and methods of their use” (Lexicon Pharmaceuticals, Inc., priority 2012, dated 2015)

Key:
AAK1 [1] = target: T1, AAK1 (Homo sapiens, UniProt Q2M2I8); test: HEK281 cell-based assay (phospho-mu2 Western blot in transfected HEK293F cells); conditions: 3 hours incubation, read-out: CBA IC50
T1 construct: HA; expressed in transfected cells; host or cells: HEK293F
Method in brief: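 HEK293F cells co-transfected with full-length human AAK1/HA and Flag/AP2M1 were treated next day with 5 compound concentrations (3-fold dilutions) in DMEM+0.5% FBS for 3 hours at 37° C. Lysates were Western blotted for phospho-mu2, with total mu2 detected by anti-Flag.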

AAK1 [2] = target: T1, AAK1; test: P81 filter plate assay; type: biochemical; conditions: full-length human AAK1, Mu2 substrate

T1 sequence (Q2M2I8 1-863 isoform Q2M2I8-2): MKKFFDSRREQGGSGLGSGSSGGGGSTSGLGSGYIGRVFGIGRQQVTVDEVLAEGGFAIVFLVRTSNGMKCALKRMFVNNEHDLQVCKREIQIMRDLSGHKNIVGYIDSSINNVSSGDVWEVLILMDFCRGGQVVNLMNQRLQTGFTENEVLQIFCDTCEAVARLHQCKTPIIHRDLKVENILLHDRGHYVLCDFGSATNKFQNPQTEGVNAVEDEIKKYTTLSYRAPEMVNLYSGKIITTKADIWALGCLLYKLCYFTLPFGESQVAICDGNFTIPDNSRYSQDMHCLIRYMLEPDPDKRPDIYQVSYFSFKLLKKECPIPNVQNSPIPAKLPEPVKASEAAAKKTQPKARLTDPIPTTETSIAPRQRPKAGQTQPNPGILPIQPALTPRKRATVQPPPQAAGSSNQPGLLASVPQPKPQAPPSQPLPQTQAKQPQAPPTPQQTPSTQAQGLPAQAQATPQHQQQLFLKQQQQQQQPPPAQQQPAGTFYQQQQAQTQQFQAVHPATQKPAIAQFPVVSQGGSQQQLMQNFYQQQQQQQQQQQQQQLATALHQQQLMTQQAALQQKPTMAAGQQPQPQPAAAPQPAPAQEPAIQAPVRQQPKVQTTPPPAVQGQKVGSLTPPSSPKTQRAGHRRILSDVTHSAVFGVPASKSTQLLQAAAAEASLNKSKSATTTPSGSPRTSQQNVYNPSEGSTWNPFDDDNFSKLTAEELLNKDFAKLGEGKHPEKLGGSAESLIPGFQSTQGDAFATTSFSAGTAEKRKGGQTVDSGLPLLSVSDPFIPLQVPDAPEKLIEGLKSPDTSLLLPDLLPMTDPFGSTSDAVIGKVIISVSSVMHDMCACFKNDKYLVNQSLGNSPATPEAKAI

Row | Structure (SMILES) | IC50 (AAK1 [1]) [nM] | IC50 (AAK1 [2]) [nM]
1 | [2H]C([2H])([2H])Oc1ncccc1-c1cnc2ccc(N3CC[C@H](N(C)C(=O)OC(C)C)C3)nn12 [(S)-isopropyl (1-(3-(2-(tri-deuteromethoxy)pyridin-3-yl)imidazo[1,2-b]pyridazin-6-yl)pyrrolidin-3-yl)(methyl)carbamate] | ≤ 10 | ≤ 10
2 | CC(C)OC(=O)N1CCN(c2ccc3ncc(-c4ccc[nH]c4=O)n3n2)CC1 [isopropyl 4-(3-(2-oxo-1,2-dihydropyridin-3-yl)imidazo[1,2-b]pyridazin-6-yl)piperazine-1-carboxylate] | ≤ 100 | ≤ 10
3 | COc1cccc(-c2cnc3ccc(NC[C@@H]4CCCN4C(=O)CC(C)C)nn23)c1 [(S)-1-(2-(((3-(3-methoxyphenyl)imidazo[1,2-b]pyridazin-6-yl)amino)methyl)pyrrolidin-1-yl)-3-methylbutan-1-one] | ≤ 100 | ≤ 10
4 | [2H]C([2H])([2H])Oc1ncccc1-c1cnc2ccc(N3CC[C@H](N(C)C(=O)OCC)C3)nn12 [(S)-ethyl (1-(3-(2-(trideuteromethoxy)pyridin-3-yl)imidazo[1,2-b]pyridazin-6-yl)pyrrolidin-3-yl)(methyl)carbamate] | ≤ 100 | ≤ 10
5 | COc1ccccc1-c1cnc2ccc(NC[C@@H]3CCCN3C(=O)NC3CCCC3)nn12 [(S)-N-cyclopentyl-2-(((3-(2-methoxyphenyl)imidazo[1,2-b]pyridazin-6-yl)amino)methyl)pyrrolidine-1-carboxamide] | ≤ 1000 | ≤ 10
6 | COc1cccc(-c2cnc3ccc(N4CCN(C(=O)OC(C)C)CC4)nn23)c1OC [isopropyl 4-(3-(2,3-dimethoxyphenyl)imidazo[1,2-b]pyridazin-6-yl)piperazine-1-carboxylate] | ≤ 100 | ≤ 10
7 | c1cc(-c2cnc3ccc(NCCOC4CCCC4)nn23)n[nH]1 [N-(2-(cyclopentyloxy)ethyl)-3-(1H-pyrazol-3-yl)imidazo[1,2-b]pyridazin-6-amine] | ≤ 1000 | ≤ 100
8 | CC(C)(C)C(=O)N1CCC[C@H]1CNc1ccc2ncc(-c3ccc(CN)cc3)n2n1 [(S)-1-(2-(((3-(4-(aminomethyl)phenyl)imidazo[1,2-b]pyridazin-6-yl)amino)methyl)pyrrolidin-1-yl)-2,2-dimethylpropan-1-one] | ≤ 100 | ≤ 10
9 | CC(C)OC(=O)N1CCN(c2ccc3ncc(-c4cccc5c4OC(F)(F)O5)n3n2)CC1 [isopropyl 4-(3-(2,2-difluorobenzo[d][1,3]dioxol-4-yl)imidazo[1,2-b]pyridazin-6-yl)piperazine-1-carboxylate] | ≤ 1000 | ≤ 10
10 | CC(C)OC(=O)N(C)[C@H]1CCN(c2ccc3ncc(-c4ccc(CN)cc4)n3n2)C1 [(S)-isopropyl (1-(3-(4-(aminomethyl)phenyl)imidazo[1,2-b]pyridazin-6-yl)pyrrolidin-3-yl)(methyl)carbamate] | ≤ 10 | ≤ 10
11 | COc1ccc(F)cc1-c1cnc2ccc(N3CC[C@H](N(C)C(=O)OC(C)C)C3)nn12 [(S)-isopropyl (1-(3-(5-fluoro-2-methoxyphenyl)imidazo[1,2-b]pyridazin-6-yl)pyrrolidin-3-yl)(methyl)carbamate] | ≤ 10 | ≤ 10
12 | O=C(OC1CCCC1)N1CCC[C@H]1CNc1ccc2ncc(Br)n2n1 [(S)-cyclopentyl 2-(((3-bromoimidazo[1,2-b]pyridazin-6-yl)amino)methyl)pyrrolidine-1-carboxylate] | ≤ 10 | ≤ 10
13 | COc1cc(-c2cnc3ccc(N4CCN(C(=O)OC(C)C)CC4)nn23)ccn1 [isopropyl 4-(3-(2-methoxypyridin-4-yl)imidazo[1,2-b]pyridazin-6-yl)piperazine-1-carboxylate] | ≤ 100 | ≤ 10
14 | COc1cc(-c2cnc3ccc(N4CC[C@H](N(C)C(=O)OC(C)C)C4)nn23)c(OC)nn1 [(S)-isopropyl (1-(3-(3,6-dimethoxypyridazin-4-yl)imidazo[1,2-b]pyridazin-6-yl)pyrrolidin-3-yl)(methyl)carbamate] | ≤ 100 | ≤ 10
15 | COc1nc(C)ccc1-c1cnc2ccc(N3CC[C@H](N(C)C(=O)OC(C)C)C3)nn12 [(S)-isopropyl(1-(3-(2-methoxy-6-methylpyridin-3-yl)imidazo[1,2-b]pyridazin-6-yl)pyrrolidin-3-yl)(methyl)carbamate] | ≤ 10 | ≤ 10
16 | COc1ccccc1-c1cnc2ccc(N3CCN(C(=O)N(C)C(C)C)CC3)nn12 [N-isopropyl-4-(3-(2-methoxyphenyl)imidazo[1,2-b]pyridazin-6-yl)-N-methylpiperazine-1-carboxamide] | ≤ 100 | ≤ 10
17 | COc1ccccc1-c1cnc2ccc(N3CCN(C(=O)N4CCCC4)CC3)nn12 [(4-(3-(2-methoxyphenyl)imidazo[1,2-b]pyridazin-6-yl)piperazin-1-yl)(pyrrolidin-1-yl)methanone] | ≤ 100 | ≤ 10

Row | Structure (SMILES) | IC50 (AAK1 [1]) [nM] | IC50 (AAK1 [2]) [nM]
18 | COc1ncccc1-c1cnc2ccc(NC[C@@H]3CCCN3C(=O)OC(C)C)nn12 [(S)-isopropyl 2-(((3-(2-methoxypyridin-3-yl)imidazo[1,2-b]pyridazin-6-yl)amino)methyl)pyrrolidine-1-carboxylate] | ≤ 10 | ≤ 10
19 | CC(C)(C)OC(=O)N1CCN(c2ccc3ncc(I)n3n2)CC1 [4-(3-Iodo-imidazo[1,2-b]pyridazin-6-yl)-piperazine-1-carboxylic acid tert-butyl ester] | ≤ 100 | ≤ 10
20 | c1ccc(-c2cnc3ccc(NCCOC4CCCC4)nn23)nc1 [N-(2-(cyclopentyloxy)ethyl)-3-(pyridin-2-yl)imidazo[1,2-b]pyridazin-6-amine] | ≤ 100 | ≤ 10
21 | COc1ccc(-c2cnc3ccc(NC[C@@H]4CCCN4C(=O)CC(C)C)nn23)cc1 [(S)-1-(2-(((3-(4-methoxyphenyl)imidazo[1,2-b]pyridazin-6-yl)amino)methyl)pyrrolidin-1-yl)-3-methylbutan-1-one] | ≤ 1000 | ≤ 10
22 | COc1cnccc1-c1cnc2ccc(N3CCN(C(=O)N4CCCC4)CC3)nn12 [(4-(3-(3-methoxypyridin-4-yl)imidazo[1,2-b]pyridazin-6-yl)piperazin-1-yl)(pyrrolidin-1-yl)methanone] | ≤ 100 | ≤ 10
23 | O=C(N1CCCC1)N1CCN(c2ccc3ncc(-c4ccccn4)n3n2)CC1 [[4-(3-Pyridin-2-yl-imidazo[1,2-b]pyridazin-6-yl)-piperazin-1-yl]-pyrrolidin-1-yl-methanone] | ≤ 100 | ≤ 10
24 | CC(C)OC(=O)N1CCC[C@H]1CNc1ccc2ncc(C#N)n2n1 [(S)-isopropyl 2-(((3-cyanoimidazo[1,2-b]pyridazin-6-yl)amino)methyl)pyrrolidine-1-carboxylate] | ≤ 1000 | ≤ 10
25 | CN(C)C(=O)c1cccc(-c2cnc3ccc(N4CCN(C(=O)N5CCCC5)CC4)nn23)c1 [N,N-dimethyl-3-(6-(4-(pyrrolidine-1-carbonyl)piperazin-1-yl)imidazo[1,2-b]pyridazin-3-yl)benzamide] | ≤ 100 | ≤ 10
26 | NCc1ccc(-c2cnc3ccc(NC[C@@H]4CCCN4C(=O)OC4CCCC4)nn23)cc1 [(S)-cyclopentyl 2-(((3-(4-(aminomethyl)phenyl)imidazo[1,2-b]pyridazin-6-yl)amino)methyl)pyrrolidine-1-carboxylate] | ≤ 10 | ≤ 10
27 | COc1ccccc1-c1cnc2ccc(NC[C@@H]3CCCN3C(=O)NC(C)(C)C)nn12 [(S)-N-(tert-butyl)-2-(((3-(2-methoxyphenyl)imidazo[1,2-b]pyridazin-6-yl)amino)methyl)pyrrolidine-1-carboxamide] | ≤ 100 | ≤ 10
28 | CC(C)CC(=O)N1CCC[C@H]1CNc1ccc2ncc(-c3cccc(F)c3)n2n1 [(S)-1-(2-(((3-(3-fluorophenyl)imidazo[1,2-b]pyridazin-6-yl)amino)methyl)pyrrolidin-1-yl)-3-methylbutan-1-one] | ≤ 10 | ≤ 10
29 | CC(C)(C)CC(=O)N1CCC[C@H]1CNc1ccc2ncc(-c3ccc(CN)cc3)n2n1 [(S)-1-(2-(((3-(4-(aminomethyl)phenyl)imidazo[1,2-b]pyridazin-6-yl)amino)methyl)pyrrolidin-1-yl)-3,3-dimethylbutan-1-one] | ≤ 100 | ≤ 10
30 | CC(C)(C)CCN1C(=O)CC[C@H]1CNc1ccc2ncc(-c3ccc(CN)cc3)n2n1 [(S)-5-(((3-(4-(aminomethyl)phenyl)imidazo[1,2-b]pyridazin-6-yl)amino)methyl)-1-(3,3-dimethylbutyl)pyrrolidin-2-one] | ≤ 100 | ≤ 10
31 | CN(C(=O)OC(C)(C)C)C1CCN(c2ccc3ncc(-c4ccccc4)n3n2)C1 (centres unmarked) [tert-butyl methyl(1-(3-phenylimidazo[1,2-b]pyridazin-6-yl)pyrrolidin-3-yl)carbamate] | ≤ 100 | ≤ 100
32 | CC(C)(C)NC(=O)N1CCC[C@H]1CNc1ccc2ncc(-c3ccccc3)n2n1 [(S)-N-(tert-butyl)-2-(((3-phenylimidazo[1,2-b]pyridazin-6-yl)amino)methyl)pyrrolidine-1-carboxamide] | ≤ 100 | ≤ 10
33 | CC(C)OC(=O)N1CCN(c2ccc3ncc(-c4cccnc4OC(F)F)n3n2)CC1 [isopropyl 4-(3-(2-(difluoromethoxy)pyridin-3-yl)imidazo[1,2-b]pyridazin-6-yl)piperazine-1-carboxylate] | ≤ 100 | ≤ 10
34 | COc1ncccc1-c1cnc2ccc(N3CC[C@H](N(C)C(=O)N4CCCC4)C3)nn12 [(S)—N-(1-(3-(2-methoxypyridin-3-yl)imidazo[1,2-b]pyridazin-6-yl)pyrrolidin-3-yl)-N-methylpyrrolidine-1-carboxamide] | ≤ 100 | ≤ 10
